{"source": "patent EP0470323A2", "about": "“New salts of the nicotinic acid with aminobenzylic compounds and their pharmaceutical use” (BROMLEY LIMITED, priority 1990, dated 1992)", "key": {"[1]": {"tested_on": "pl strain of Schiosaccharomyces Pombe", "test": "Frequency of mutations in yeast, with and without microsomal fraction", "type": "cell-based", "details": "tested dosages, with and without microsmial fraction", "excerpt": "(§1) The compound according to the Example 1 has been tested, in order to check and see its mutagenic effects."}, "[2]": {"tested_on": "Central artery of a rabbit's ear", "test": "In vitro antispastic action, adrenalin-induced spasm of the perfused isolated artery", "details": "spasm induced by Adrenalin, n=4, listed as Compound accord.Ex.1", "description": "An \"in vitro\" method has been used, according to which the withdrawal of the central artery of a rabbit's ear with the relevant nervous connections and the equipment of an appropriate seat for secluded organs was designed (Fleckenstein A., British Journal of Pharmacology 7, 533, 1952).\nOn the artery they did install a three-ways tube, connected with a peristaltic pump and with a mercury manometer to record the perfusion pressure. The artery was perfused with a rebs liquid at the speed of 2,5 ml/minute. The contractions were induced by injecting into the vessel 0,1 ml adrenalin at the concentration of 1 mcg/ml. The compound according to the example 1 has been added to the bath at concentrations of 0,5 - 1 - 2 uM, five minutes before the adrenalin (four preparations per concentration). As comparison drugs, chlorhydra ted Buflomedil and Papaverin have been used. The activity of the material under investigation has been appreciated in terms of percentages referring to the concentration induced by the Adrenalin (and expressed with DE₅₀) and the relevant forbidding."}, "Schiosaccharomyces Pombe": {"tested_on": "Schiosaccharomyces Pombe", "test": "Mutagenic action of urines of intragastrically treated rats on yeast", "type": "cell-based", "details": "urines of rats treated intragastrically with two doses, with metabolic activation, beta-glucoronidase absent"}, "[3]": {"tested_on": "hypertrigliceridaemia from olive oil in the rats", "test": "Hypertriglyceridaemia from olive oil in the rat (serum lactescence)", "type": "in vivo", "description": "The method described by Zucker I.H. (Sci. Anal. Lab. 24, 114, 1972) has been followed.\nMale rats have been used, whose body weight was 150-200 g. The animals were without eating with water \"ad libitum\" and all this beginning 24 hours before the experiment. The hyperlipaemia was induced by the administration of olive oil by mouth; its composition as to the fat acids was as follows: palmitic acid 10% palmitoleic acid 1%, stearic acid 3%, […] and linoleic acid 7% (all percentages are by weight). The quantity of olive oil administered, by means of a gastric probe, was 10 ml/kg. The treatments were made by finely pounding with a china mortar and by suspending in the olive oil the examined compounds. […] The positive control animals received only olive oil; moreover, there was also a group of negative control animals who received plain water in quantities of 10 ml/kg. Every three hours a group of rats (10) was killed in a light ethereal anaesthesia, in order to be able to appreciate the percentage of triglycerides in the blood. The animals were bled by cutting them the carotids and the blood was collected in plastic test-tubes, capacity 10 ml each, and was centrifuged for ten minutes at 3500 rpm. The evaluated parameter was the lactescence of the serum, which is directly proportional to the contents of kilomicrons and therefore of triglycerides (Zucker, see above the mention). The serum has been diluted 1:5 in a physiologic solution and was read at the spectrophotometer at […] against white (physiologic solution). From the individual optical Density (D.O.) data one could calculate for each group the average of the standard error. The statistical analysis was performed by means of the t of Dunnett."}, "[4]": {"tested_on": "Hypercholesterolaemia caused by Trit WR1339 in the mouses", "test": "Hypercholesterolaemia of the mouse caused by Triton WR 1339", "type": "in vivo", "details": "for Tot.Cholesterol M ± E.S. / Tot.Lipids M ± E.S.: 20 hours after Triton WR 1339 i.p.; for Tot.Cholesterol % vs contr. / Tot.Lipids % vs contr.: reduction", "description": "The method described by Garattini S. (Arzneim,Forsch 9, 206; 1959) with some modifications has been followed.\nThe mouses used have been males of 22 to 28 grams body weight, on an empty stomach but with water \"ad libitum\" since 12 hours. The hyperlipidaemia was induced by means of an intraperitoneum administration of […] of Triton WR 1339, with dosage 300 mg/kg in a physiological solution. The subject products were administered at the same time in clear plain water, always in a volume of […] by means of a gastric probe. The animals were sacrified after 20 hours, by cutting them the carotids. The blood was collected in some plastic test-tubes, and was centrifuged at 3500 rpm for ten minutes. Thereafter the total cholesterol (Sornay R and colleagues, Arzeneim Forsch, 26,885 1976) and the total lipids (Chonhelmer R and colleagues, Biological Chemistry 106, 745, 1934) were determined."}, "[5]": {"tested_on": "Thyphirium salmonella strains (TA 98, TA 100, TA 1535, and TA 1538)", "type": "cell-based", "excerpt": "as §1"}}, "data": [{"smiles": "COc1cc(OC)c(C(=O)CCCN2CCCC2)c(OC)c1", "note": "[Example 1, 4-(1 pyrrholydinyl)-1-(2,4,6 trimethoxypheniyl)-1-nicotinized butanone]", "values": [{"measurement": "frequency of mutations", "setting": "[1]", "result": "did not increase"}, {"measurement": "% inhibi-tions of the con-tractions", "setting": "[2]; concentration 0,5 μ M", "result": 45, "unit": "%"}, {"measurement": "% inhibi-tions of the con-tractions", "setting": "[2]; concentration 1,0 μ M", "result": 70, "unit": "%"}, {"measurement": "% inhibi-tions of the con-tractions", "setting": "[2]; concentration 2,0 μ M", "result": 94, "unit": "%"}, {"measurement": "EC50", "setting": "[2]; read-out: DE50 (the source's name)", "result": 580, "unit": "nM"}, {"measurement": "mutagenic action", "setting": "Schiosaccharomyces Pombe", "result": "any mutagenic action did not result"}, {"measurement": "Serum opt.density at the indicated times (M ± E.S.)", "setting": "[3]; dose 1 mM/kg/os, 3 h", "result": "247 ± 15,3"}, {"measurement": "Serum opt.density at the indicated times (M ± E.S.)", "setting": "[3]; dose 1 mM/kg/os, 6 h", "result": "1121 ± 51,6"}, {"measurement": "Serum opt.density at the indicated times (M ± E.S.)", "setting": "[3]; dose 1 mM/kg/os, 9 h", "result": "987 ± 36,7"}, {"measurement": "Serum opt.density at the indicated times (M ± E.S.)", "setting": "[3]; dose 1 mM/kg/os, 12 h", "result": "724 ± 28,4"}, {"measurement": "Serum opt.density at the indicated times (M ± E.S.)", "setting": "[3]; dose 1 mM/kg/os, 15 h", "result": "458 ± 21,3"}, {"measurement": "Serum opt.density at the indicated times (M ± E.S.)", "setting": "[3]; dose 1 mM/kg/os, 18 h", "result": "229 ± 22,6"}, {"measurement": "Serum opt.density at the indicated times (M ± E.S.)", "setting": "[3]; dose 2 mM/kg/os, 3 h", "result": "271 ± 15,9"}, {"measurement": "Serum opt.density at the indicated times (M ± E.S.)", "setting": "[3]; dose 2 mM/kg/os, 6 h", "result": "856 ± 44,2"}, {"measurement": "Serum opt.density at the indicated times (M ± E.S.)", "setting": "[3]; dose 2 mM/kg/os, 9 h", "result": "624 ± 27,4"}, {"measurement": "Serum opt.density at the indicated times (M ± E.S.)", "setting": "[3]; dose 2 mM/kg/os, 12 h", "result": "451 ± 26,2"}, {"measurement": "Serum opt.density at the indicated times (M ± E.S.)", "setting": "[3]; dose 2 mM/kg/os, 15 h", "result": "294 ± 26,2"}, {"measurement": "Serum opt.density at the indicated times (M ± E.S.)", "setting": "[3]; dose 2 mM/kg/os, 18 h", "result": "212 ± 28,3"}, {"measurement": "Serum opt.density at the indicated times (M ± E.S.)", "setting": "[3]; dose 4 mM/kg/os, 3 h", "result": "260 ± 17,1"}, {"measurement": "Serum opt.density at the indicated times (M ± E.S.)", "setting": "[3]; dose 4 mM/kg/os, 6 h", "result": "720 ± 43,8"}, {"measurement": "Serum opt.density at the indicated times (M ± E.S.)", "setting": "[3]; dose 4 mM/kg/os, 9 h", "result": "612 ± 21,2"}, {"measurement": "Serum opt.density at the indicated times (M ± E.S.)", "setting": "[3]; dose 4 mM/kg/os, 12 h", "result": "400 ± 28,3"}, {"measurement": "Serum opt.density at the indicated times (M ± E.S.)", "setting": "[3]; dose 4 mM/kg/os, 15 h", "result": "226 ± 25,6"}, {"measurement": "Serum opt.density at the indicated times (M ± E.S.)", "setting": "[3]; dose 4 mM/kg/os, 18 h", "result": "184 ± 16,2"}, {"measurement": "reduction in both parameters (total cholesterol and total lipids)", "setting": "[4]; dosage of 2 mM/kg weight", "result": 43, "unit": "%"}, {"measurement": "reduction in both parameters (total cholesterol and total lipids)", "setting": "[4]; dosage of 5 mM/kg weight", "result": "~60", "unit": "%"}, {"measurement": "Tot.Cholesterol M ± E.S.", "setting": "[4]; dose 1 mM/kg per os", "result": "221 ± 18", "unit": "mg/100 ml"}, {"measurement": "Tot.Lipids M ± E.S.", "setting": "[4]; dose 1 mM/kg per os", "result": "1721 ± 164", "unit": "mg/100 ml"}, {"measurement": "Tot.Cholesterol % vs contr.", "setting": "[4]; dose 1 mM/kg per os", "result": "38,3%"}, {"measurement": "Tot.Lipids % vs contr.", "setting": "[4]; dose 1 mM/kg per os", "result": "29,3%"}, {"measurement": "Tot.Cholesterol M ± E.S.", "setting": "[4]; dose 2 mM/kg per os", "result": "191 ± 15", "unit": "mg/100 ml"}, {"measurement": "Tot.Lipids M ± E.S.", "setting": "[4]; dose 2 mM/kg per os", "result": "1315 ± 115", "unit": "mg/100 ml"}, {"measurement": "Tot.Cholesterol % vs contr.", "setting": "[4]; dose 2 mM/kg per os", "result": "46,6%"}, {"measurement": "Tot.Lipids % vs contr.", "setting": "[4]; dose 2 mM/kg per os", "result": "46,0%"}, {"measurement": "Tot.Cholesterol M ± E.S.", "setting": "[4]; dose 4 mM/kg per os", "result": "133 ± 12", "unit": "mg/100 ml"}, {"measurement": "Tot.Lipids M ± E.S.", "setting": "[4]; dose 4 mM/kg per os", "result": "1008 ± 117", "unit": "mg/100 ml"}, {"measurement": "Tot.Cholesterol % vs contr.", "setting": "[4]; dose 4 mM/kg per os", "result": "62,8%"}, {"measurement": "Tot.Lipids % vs contr.", "setting": "[4]; dose 4 mM/kg per os", "result": "58,6%"}, {"measurement": "mutagenic activity", "setting": "[5]", "result": "did not show any mutagenic activity"}]}]}
